From patent US20110130370A1, “Pharmaceutical composition comprising a strontium salt, vitamin D and A cyclodextrin” (LES LABORATORIES SERVIER, priority 2009, published 2011)

Assay: Stability of the vitamin D3+RAMEB complex at 40° C./75% RH in sealed amber glass pill containers
Format: physicochemical
Procedure: The stability of the vitamin D3+RAMEB complex of Example 1B at 40° C./75% RH was tested and compare to the stability of: 1) pure vitamin D3, 2) a concentrate of vitamin D3 in powder form (DSM).
The study is carried out in pill containers of sealed amber glass (stopper of type for antibiotics, chlorobutyl, grey, D13—natural aluminium crimp-on cap D20 mm, tear-off lid).

C=C1CC[C@H](O)C/C1=C/C=C1\CCC[C@]2(C)[C@@H]([C@H](C)CCCC(C)C)CC[C@@H]12 [pure vitamin D3, cholecalciferol]
% vitamin D3 (t0): 98.0% | % vitamin D3 (t0 + 3 weeks, 40° C./75% RH): 20.3% | % vitamin D3 (t0 + 6 weeks, 40° C./75% RH): 23.1%
